Values joined by “and” are separate entries in the source; they are usually repeats but may differ in a detail not shown here. Equal entries are not always repeated.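 Cultured in 96-well plates, cells were exposed to test compound for 48 hours across five concentrations. At the GI50, growth is halved. TGI is the concentration that stops growth completely.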

The subject of the first assay is 786-0 renal. Put plainly: NCI tumour cell line growth inhibition, 48 h.
As for `Cc1c(C2=C(Br)C(=O)N(C)C2=O)c(=O)n(C)c(=O)n1C`, the TGI is 32.1 µM.
As for `N#CC(=NCCO)C1=C(O)c2ccccc2C1=O`, the TGI is more than 100 µM.
Take `NC(CS/C(Cl)=C/Cl)C(=O)O` (stereo not given): the GI50 was more than 100 µM and the TGI was more than 100 µM.
With `O=C(Nc1ccc(CO)cc1)c1coc2ccccc2c1=O`, the GI50 was more than 100 µM and the TGI was more than 100 µM.
Take `Cc1cc(N/N=C/c2nc(-c3ccc(Br)cc3)oc2C)c2cc(Br)ccc2n1`: the GI50 was 1.7 µM and the TGI was determined as 3.42 µM.
On to `CC(=O)/C=C/c1ccc(C#Cc2ccccc2)s1`, for which the GI50 was 12.5 µM and the TGI amounted to 25 µM.
With `COc1ccc2c(c1)C(C)Cc1c(ncnc1-n1c(C)nc3ccccc31)N2C` (stereo not given), the GI50 was 5.83 µM and the TGI came out at 29.2 µM.
For `CC(C)OC(=O)NNc1cc(Cl)ccc1Cl`, the TGI is more than 100 µM.
In turn, `COc1ccc2[nH]c3c4c(ccc3c2c1)C(=O)C=CC4=O` showed a TGI of 24.2 µM.
As to `COc1ccc2c(O)cc3c(c2c1)[C@H](CCl)CN3C(=O)c1cc2cc(NC(=O)CCN3CCOCC3)ccc2[se]1`, the GI50 is less than 0.001 µM and the TGI was less than 0.001 µM.
Compound `COc1cc2c(cc1O)C1Cc3ccc(OC)c(O)c3C(C2)N1C` (stereo not given) returned a TGI of more than 100 µM.
Consider `CCOC(=O)CNC(=O)c1ccccc1Nc1ccnc(C(F)(F)F)c1`, for which the GI50 was 52.6 µM and the TGI was more than 90 µM.
For `COc1ccc2c(c1)[C@@]13CCCC[C@H]1[C@@H](C2)N(C)CC3=O`, the TGI is 32.8 µM.
In the case of `COc1cccc(/C(COc2ccc3c(c2)oc(=O)c2cc(OC)ccc23)=N/O)c1`, the GI50 is 9.66 µM and the TGI is more than 100 µM.
In turn, `N=C(N)SCc1cccc(-c2nc3ccccc3c(=O)o2)c1` showed a TGI of more than 100 µM.
Turning to `COc1cc2c(c(OC)n1)[C@]1(O)[C@H](O)[C@H](CN(C)C)[C@@H](c3ccccc3)[C@]1(c1ccc(C#N)cc1)O2`, the GI50 is 0.0443 µM and 0.0313 µM; the TGI is 7.37 µM and 4.06 µM.
`C=CCSS/C=C/CS(=O)CC=C` (stereo not given) came in with a TGI of 33.4 µM.
In the case of `Cc1cc2c(cc1Cl)SC(=Nc1ccc(Cl)cc1)N(S(=O)(=O)c1ccccc1)S2(=O)=O`, the GI50 was 4.54 µM and the TGI was 18.1 µM.

The subject of the next assay is IGROV1 ovarian. In words: NCI tumour cell line growth inhibition, 48 h.
`Cc1c(C2=C(Br)C(=O)N(C)C2=O)c(=O)n(C)c(=O)n1C` displayed a TGI of 36.5 µM.
Same read-out and setting: the value for `N#CC(=NCCO)C1=C(O)c2ccccc2C1=O` was more than 100 µM.
Regarding `NC(CS/C(Cl)=C/Cl)C(=O)O` (stereo not given), the GI50 is more than 100 µM and the TGI is more than 100 µM.
As to `O=C(Nc1ccc(CO)cc1)c1coc2ccccc2c1=O`, the GI50 is more than 100 µM and the TGI was more than 100 µM.
Regarding `Cc1cc(N/N=C/c2nc(-c3ccc(Br)cc3)oc2C)c2cc(Br)ccc2n1`, the GI50 was 4.55 µM and the TGI worked out at 20.2 µM.
Consider `CC(=O)/C=C/c1ccc(C#Cc2ccccc2)s1`, for which the GI50 was 18.3 µM and the TGI was 32.2 µM.
Regarding `COc1ccc2c(c1)C(C)Cc1c(ncnc1-n1c(C)nc3ccccc31)N2C` (stereo not given), the GI50 was 6.3 µM and the TGI was 36.2 µM.
In turn, `CC(C)OC(=O)NNc1cc(Cl)ccc1Cl` returned a TGI of more than 100 µM.
`COc1ccc2[nH]c3c4c(ccc3c2c1)C(=O)C=CC4=O`: the TGI turned out to be 26.4 µM.
Regarding `COc1ccc2c(O)cc3c(c2c1)[C@H](CCl)CN3C(=O)c1cc2cc(NC(=O)CCN3CCOCC3)ccc2[se]1`, the GI50 is less than 0.001 µM and the TGI amounted to 1.36 µM.
Turning to `COc1cc2c(cc1O)C1Cc3ccc(OC)c(O)c3C(C2)N1C` (stereo not given), the TGI is more than 100 µM.
As for `CCOC(=O)CNC(=O)c1ccccc1Nc1ccnc(C(F)(F)F)c1`, the GI50 is 32.2 µM and the TGI is more than 65.7 µM.
Turning to `COc1ccc2c(c1)[C@@]13CCCC[C@H]1[C@@H](C2)N(C)CC3=O`, the TGI came out at 32.8 µM.
Regarding `COc1cccc(/C(COc2ccc3c(c2)oc(=O)c2cc(OC)ccc23)=N/O)c1`, the GI50 was 3.8 µM and the TGI was more than 100 µM.
`N=C(N)SCc1cccc(-c2nc3ccccc3c(=O)o2)c1` yielded a TGI of more than 100 µM.
Turning to `COc1cc2c(c(OC)n1)[C@]1(O)[C@H](O)[C@H](CN(C)C)[C@@H](c3ccccc3)[C@]1(c1ccc(C#N)cc1)O2`, the GI50 is 0.0134 µM and < 0.01 µM; the TGI was 2.44 µM and 1.93 µM.
`C=CCSS/C=C/CS(=O)CC=C` (stereo not given) returned a TGI of more than 100 µM.
Turning to `Cc1cc2c(cc1Cl)SC(=Nc1ccc(Cl)cc1)N(S(=O)(=O)c1ccccc1)S2(=O)=O`, the GI50 is 2.55 µM and the TGI came out at 31.7 µM.

For a further assay, the system named is LOX IMVI melanoma. Put plainly: NCI tumour cell line growth inhibition, 48 h.
Turning to `Cc1c(C2=C(Br)C(=O)N(C)C2=O)c(=O)n(C)c(=O)n1C`, the TGI came to 32.3 µM.
On the same count and under the same terms, in the case of `N#CC(=NCCO)C1=C(O)c2ccccc2C1=O` it was more than 100 µM.
In the case of `NC(CS/C(Cl)=C/Cl)C(=O)O` (stereo not given), the GI50 is 1.02 µM and the TGI is 4.34 µM.
With `O=C(Nc1ccc(CO)cc1)c1coc2ccccc2c1=O`, the GI50 is more than 100 µM and the TGI is more than 100 µM.
As for `Cc1cc(N/N=C/c2nc(-c3ccc(Br)cc3)oc2C)c2cc(Br)ccc2n1`, the GI50 is 1.99 µM and the TGI turned out to be 4.3 µM.
The matching figures for `CC(=O)/C=C/c1ccc(C#Cc2ccccc2)s1`: 18 µM and 31.9 µM.
In the case of `COc1ccc2c(c1)C(C)Cc1c(ncnc1-n1c(C)nc3ccccc31)N2C` (stereo not given), the GI50 was 4.42 µM and the TGI amounted to 23.9 µM.
Compound `CC(C)OC(=O)NNc1cc(Cl)ccc1Cl` returned a TGI of more than 100 µM.
`COc1ccc2[nH]c3c4c(ccc3c2c1)C(=O)C=CC4=O`: the TGI is 24.1 µM.
For `COc1ccc2c(O)cc3c(c2c1)[C@H](CCl)CN3C(=O)c1cc2cc(NC(=O)CCN3CCOCC3)ccc2[se]1`, the GI50 is less than 0.001 µM and the TGI was 0.0101 µM.
Turning to `COc1cc2c(cc1O)C1Cc3ccc(OC)c(O)c3C(C2)N1C` (stereo not given), the TGI was more than 100 µM.
For `CCOC(=O)CNC(=O)c1ccccc1Nc1ccnc(C(F)(F)F)c1`, the GI50 was 17.5 µM and the TGI was found to be 36.2 µM.
Turning to `COc1ccc2c(c1)[C@@]13CCCC[C@H]1[C@@H](C2)N(C)CC3=O`, the TGI worked out at 30.9 µM.
With `COc1cccc(/C(COc2ccc3c(c2)oc(=O)c2cc(OC)ccc23)=N/O)c1`, the GI50 was 7.14 µM and the TGI was more than 100 µM.
As for `N=C(N)SCc1cccc(-c2nc3ccccc3c(=O)o2)c1`, the TGI is more than 100 µM.
Regarding `COc1cc2c(c(OC)n1)[C@]1(O)[C@H](O)[C@H](CN(C)C)[C@@H](c3ccccc3)[C@]1(c1ccc(C#N)cc1)O2`, the GI50 is less than 0.01 µM; the TGI is 0.0153 µM and 0.0133 µM.
On to `C=CCSS/C=C/CS(=O)CC=C` (stereo not given), for which the TGI is 29.9 µM.
As for `Cc1cc2c(cc1Cl)SC(=Nc1ccc(Cl)cc1)N(S(=O)(=O)c1ccccc1)S2(=O)=O`, the GI50 was 1.58 µM and the TGI was found to be 7.18 µM.

The next assay deals with MCF7 breast. Put plainly: NCI tumour cell line growth inhibition, 48 h.
As for `Cc1c(C2=C(Br)C(=O)N(C)C2=O)c(=O)n(C)c(=O)n1C`, the TGI was found to be 37.1 µM.
Regarding `N#CC(=NCCO)C1=C(O)c2ccccc2C1=O`, the TGI was more than 100 µM.
As to `NC(CS/C(Cl)=C/Cl)C(=O)O` (stereo not given), the GI50 was 4.03 µM and the TGI is more than 100 µM.
As to `O=C(Nc1ccc(CO)cc1)c1coc2ccccc2c1=O`, the GI50 is more than 100 µM and the TGI is more than 100 µM.
With `Cc1cc(N/N=C/c2nc(-c3ccc(Br)cc3)oc2C)c2cc(Br)ccc2n1`, the GI50 was 1.68 µM and the TGI worked out at 3.74 µM.
For the compound `CC(=O)/C=C/c1ccc(C#Cc2ccccc2)s1`, the GI50 was 7.6 µM and the TGI is 65 µM.
The matching figures for `COc1ccc2c(c1)C(C)Cc1c(ncnc1-n1c(C)nc3ccccc31)N2C` (stereo not given): 1.88 µM and 19.9 µM.
`CC(C)OC(=O)NNc1cc(Cl)ccc1Cl` came in with a TGI of more than 100 µM.
Turning to `COc1ccc2[nH]c3c4c(ccc3c2c1)C(=O)C=CC4=O`, the TGI was found to be 30.1 µM.
For the compound `COc1ccc2c(O)cc3c(c2c1)[C@H](CCl)CN3C(=O)c1cc2cc(NC(=O)CCN3CCOCC3)ccc2[se]1`, the GI50 was less than 0.001 µM and the TGI was determined as 1.39 µM.
Regarding `COc1cc2c(cc1O)C1Cc3ccc(OC)c(O)c3C(C2)N1C` (stereo not given), the TGI is more than 100 µM.
Regarding `CCOC(=O)CNC(=O)c1ccccc1Nc1ccnc(C(F)(F)F)c1`, the GI50 is 38.8 µM and the TGI is more than 89.1 µM.
`COc1ccc2c(c1)[C@@]13CCCC[C@H]1[C@@H](C2)N(C)CC3=O` came in with a TGI of 33.2 µM.
In the case of `COc1cccc(/C(COc2ccc3c(c2)oc(=O)c2cc(OC)ccc23)=N/O)c1`, the GI50 is 4.02 µM and the TGI was more than 100 µM.
`N=C(N)SCc1cccc(-c2nc3ccccc3c(=O)o2)c1` came in with a TGI of more than 100 µM.
Turning to `COc1cc2c(c(OC)n1)[C@]1(O)[C@H](O)[C@H](CN(C)C)[C@@H](c3ccccc3)[C@]1(c1ccc(C#N)cc1)O2`, the GI50 was less than 0.01 µM; the TGI is 0.721 µM and 3.09 µM.
For the compound `C=CCSS/C=C/CS(=O)CC=C` (stereo not given), the TGI is more than 100 µM.
With `Cc1cc2c(cc1Cl)SC(=Nc1ccc(Cl)cc1)N(S(=O)(=O)c1ccccc1)S2(=O)=O`, the GI50 is 6.05 µM and the TGI was 22.4 µM.

Another assay deals with NCI-H522 lung. In words: NCI tumour cell line growth inhibition, 48 h.
In the case of `Cc1c(C2=C(Br)C(=O)N(C)C2=O)c(=O)n(C)c(=O)n1C`, the TGI is 29.5 µM.
Turning to `N#CC(=NCCO)C1=C(O)c2ccccc2C1=O`, the TGI is more than 100 µM.
As for `NC(CS/C(Cl)=C/Cl)C(=O)O` (stereo not given), the GI50 is more than 55.6 µM and the TGI is more than 100 µM.
For `O=C(Nc1ccc(CO)cc1)c1coc2ccccc2c1=O`, the GI50 is more than 100 µM and the TGI was more than 100 µM.
For the compound `Cc1cc(N/N=C/c2nc(-c3ccc(Br)cc3)oc2C)c2cc(Br)ccc2n1`, the GI50 was 2.21 µM and the TGI was 5.62 µM.
As to `CC(=O)/C=C/c1ccc(C#Cc2ccccc2)s1`, the GI50 was 12.7 µM and the TGI is 25.4 µM.
As to `COc1ccc2c(c1)C(C)Cc1c(ncnc1-n1c(C)nc3ccccc31)N2C` (stereo not given), the GI50 is 1.96 µM and the TGI was determined as 5.38 µM.
In the case of `CC(C)OC(=O)NNc1cc(Cl)ccc1Cl`, the TGI is more than 100 µM.
As for `COc1ccc2[nH]c3c4c(ccc3c2c1)C(=O)C=CC4=O`, the TGI is 3.66 µM.
As for `COc1ccc2c(O)cc3c(c2c1)[C@H](CCl)CN3C(=O)c1cc2cc(NC(=O)CCN3CCOCC3)ccc2[se]1`, the GI50 is less than 0.001 µM and the TGI worked out at 0.0298 µM.
`COc1cc2c(cc1O)C1Cc3ccc(OC)c(O)c3C(C2)N1C` (stereo not given) showed a TGI of more than 100 µM.
As to `CCOC(=O)CNC(=O)c1ccccc1Nc1ccnc(C(F)(F)F)c1`, the GI50 was 27.8 µM and the TGI was more than 70.5 µM.
`COc1ccc2c(c1)[C@@]13CCCC[C@H]1[C@@H](C2)N(C)CC3=O` gave a TGI of 32.9 µM.
For `COc1cccc(/C(COc2ccc3c(c2)oc(=O)c2cc(OC)ccc23)=N/O)c1`, the GI50 was 3.12 µM and the TGI stood at 9.47 µM.
With `N=C(N)SCc1cccc(-c2nc3ccccc3c(=O)o2)c1`, the TGI is more than 100 µM.
Consider `COc1cc2c(c(OC)n1)[C@]1(O)[C@H](O)[C@H](CN(C)C)[C@@H](c3ccccc3)[C@]1(c1ccc(C#N)cc1)O2`, for which the GI50 is 0.0257 µM and 0.0212 µM; the TGI was 1.15 µM and 2.24 µM.
The compound `C=CCSS/C=C/CS(=O)CC=C` (stereo not given) displayed a TGI of 32.3 µM.
In the case of `Cc1cc2c(cc1Cl)SC(=Nc1ccc(Cl)cc1)N(S(=O)(=O)c1ccccc1)S2(=O)=O`, the GI50 was 12.4 µM and the TGI worked out at 52.8 µM.
